# Measured values reported in PMC6720825, “Thiol-ene "Click" Synthesis and Pharmacological Evaluation of C-Glycoside sp^2-Iminosugar Glycolipids” (Molecules, 2019).
# “Also recorded” adds a separate entry of the source. Where two headings read alike, the source gives them in different places.
# Experiments:
# [1] = molecular target: T1, α-Glcase (Yeast Maltase) (Saccharomyces cerevisiae, UniProt P53341); test: Glycosidase inhibition (Ki), yeast maltase α-glucosidase; format: biochemical
# T1 construct: purchased
# Excerpt: The inhibitory properties of the new sp^2-IGLs 1–12 and the α-C-allyl ONJ and OGJ glycosides 15, and 24 were examined against a panel of commercial glycosidases that included the α-glucosidases maltase (Saccharomyces cerevisiae) and amyloglucosidase (Aspergillus niger), the β-glucosidases from almonds and bovine liver, α-galactosidase from green coffee beans, β-galactosidase from Escherichia coli, α-mannosidase from Jack beans, and β-mannosidase from Helix pomatia. The corresponding inhibition constant (Ki) values are collected in Table 1.
# Inhibition constant (Ki) values were determined by spectrophotometrically measuring the residual hydrolytic activities of the glycosidases against the respective o- (for β-galactosidase from E. coli) or p-nitrophenyl α- or β-D-glycopyranoside (for other glycosidases) in the presence of the iminosugars. Each assay was performed in phosphate buffer or phosphate-citrate buffer (for α- or β-mannosidase and amyloglucosidase) at the optimal pH for the enzymes. The reactions were initiated by addition of the enzyme to a solution of the substrate in the absence or presence of various inhibitor concentrations. The mixture was incubated for 10–30 min at 37 °C or 55 °C (for amyloglucosidase) and the reaction was quenched by addition of 1 M Na2CO3. Reaction times were appropriate to obtain 10–20% conversion of the substrate in order to achieve linear rates. The absorbance of the resulting mixture was determined at 405 nm. Approximate value of Ki was determined from the slope of Dixon plots using a fixed concentration of substrate (around the Km value for the different glycosidases) and various concentrations of inhibitor. Full Ki determinations and enzyme inhibition mode were determined from the slope of Lineweaver–Burk plots and double reciprocal analysis. Representative examples of Dixon and Lineweaver–Burk plots are shown in the Supplementary materials.
# [2] = tested on: human solid tumor cell lines A549, SW1573 (lung), HBL-100, T-47D (breast), HeLa (cervix), WiDr (colon); test: Antiproliferative activity (SRB assay) against a panel of six human solid tumor cell lines; format: cell-based; settings: for GI50 (concentration to achieve 50% growth inhibition): 48 h, tested 1 to 100 μM, only values below 100 μM significant; for GI50: read-out: GI50 (concentration to achieve 50% growth inhibition), 48 h, tested 1 to 100 μM, only values below 100 μM significant
# Description: The antiproliferative activity of all the sp^2-iminosugar C-glycosides (1–12) was evaluated against a panel of six representative human solid tumor cell lines including lung (A549 and SW1573), breast (HBL-100, T-47D), cervix (HeLa), and colon (WiDr).
# All reagents were used as purchased from commercial suppliers without further purification. The human solid tumor cell lines A549 (lung), HBL-100 (breast), HeLa (cervix), SW1573 (lung), T-47D (breast), and WiDr (colon) were used in this study. These cell lines were a kind gift from Prof. G. J. Peters (VU Medical Center, Amsterdam, The Netherlands).
# Cells were inoculated onto 96-well microtiter plates in a volume of 100 μL per well at densities of 2500 (A549, HBL-100, HeLa, and SW1573) and 5000 (T-47D and WiDr) cells per well, based on their doubling times. Compounds were initially dissolved in DMSO at 400 times the desired final maximum test concentration. Control cells were exposed to an equivalent concentration of DMSO (0.25% v/v, negative control). Each agent was tested in triplicate at different dilutions in the range of 1 to 100 μM. The drug treatment started on day 1 after plating. Drug incubation times were 48 h, after which cells were precipitated with 25 μL ice-cold TCA (50% w/v) and fixed for 60 min at 4 °C. Then the SRB assay was performed. The optical density (OD) of each well was measured at 530 nm, using BioTek’s PowerWave XS Absorbance Microplate Reader. Values were corrected for background OD from wells only containing medium. The antiproliferative activity for each compound, expressed as GI50 values, was calculated according to NCI formulas.
# [3] = tested on: intracellular amastigotes of Leishmania donovani MHOM/ET/67/HU3 line; test: Susceptibility of intracellular Leishmania amastigotes (luciferase assay); format: cell-based; settings: L. donovani in THP-1 macrophages, 72 h at 37 °C, threshold 20 μM
# Description: The leishmanicidal activity of all the synthesized sp^2-iminosugar C-glycosides (1–12) was evaluated against intracellular amastigotes of Leishmania donovani MHOM/ET/67/HU3 line with luciferase gene integrated into the parasite genome. […] A strong influence of the nature of the lipid chain α-linked to the pseudoanomeric position of the bicyclic core in the sp^2-IGLs was inferred from the corresponding data. […] The longer-chain sp^2-IGLs 2 and 8 were over the 20 μM concentration threshold in this assay. In the sulfone series, the results evidenced some disparity between the ONJ and OGJ epimers.
# Macrophage-differentiated THP-1 cells, which are considered a suitable model for human macrophages, were plated at a density of 3 × 10^4 or 3 × 10^5 macrophages/well in 96-well white polystyrene microplates or 24-well tissue culture chamber slides, respectively, and were infected at a macrophage/parasite ratio of 1:10 with L. donovani promastigotes. Twenty-four hours after infection at 35 °C and 5% CO2, extracellular parasites were removed by washing with serum-free medium. Infected cell cultures were then incubated at different compound concentrations in RPMI 1640 medium plus 10% iFBS at 37 °C with 5% CO2 for 72 h. To determine the susceptibility of L. donovani LUC amastigotes, infected macrophages maintained in 96-well plates were lysed and then luminescence intensity was measured as indicative of the intracellular parasite growth, using the Luciferase Assay System Kit (Promega, Madison, Wis.) according to the instructions of the supplier. To determine the susceptibility of L. donovani HU3 amastigotes, infected macrophages maintained in 24-well plates were fixed for 30 min at 4 °C with 2.5% paraformaldehyde phosphate-buffered saline (PBS; 1.2 mM KH2PO4, 8.1 mM Na2HPO4, 130 mM NaCl, and 2.6 mM KCl adjusted to pH 7) and permeabilized with 0.1% Triton X-100 in PBS for 30 min. Intracellular parasites and macrophages were detected by nuclear staining with ProLong® Gold antifade reagent plus DAPI (Invitrogen). The percentage infection and mean number of amastigotes from infected macrophages were determined with 200 macrophages/well.
# [4] = tested on: THP-1 cells; test: Cellular toxicity (MTT assay) in THP-1 cells; format: cell-based, human; settings: for EC50: Homo sapiens, THP-1, MTT assay, 72 h at 37 °C; for SI (EC50 THP-1/EC50 parasite): Selectivity Index
# Description: Human myelomonocytic cell line THP-1 was grown at 37 °C and 5% CO2 in RPMI-1640 supplemented with 10% iFBS, 2 mM […], 100 U/mL penicillin, and 100 μg/mL streptomycin; 3 × 10^4 cells/well in 96-well plates were differentiated to macrophages with 20 ng/mL of PMA treatment for 48 h followed by 24 h of culture in fresh medium. Cellular toxicity of all compounds was determined using the colorimetric MTT-based assay after incubation at 37 °C for 72 h in the presence of increasing concentrations of compounds [71].
# [5] = tested on: human lung fibroblast MRC-5 cells; test: Cellular toxicity (MTT assay) in MRC-5 cells; format: cell-based; settings: for EC50: Homo sapiens, MRC5, MTT assay, 72 h at 37 °C; for SI (EC50 MRC-5/EC50 parasite): Selectivity Index
# [6] = mean ± SD, three independent determinations, competitive inhibition, read-out: Ki, α-Glcase (Yeast Maltase)
# [7] = mean ± SD, three independent determinations, competitive inhibition
# T1 sequence (P53341 whole entry): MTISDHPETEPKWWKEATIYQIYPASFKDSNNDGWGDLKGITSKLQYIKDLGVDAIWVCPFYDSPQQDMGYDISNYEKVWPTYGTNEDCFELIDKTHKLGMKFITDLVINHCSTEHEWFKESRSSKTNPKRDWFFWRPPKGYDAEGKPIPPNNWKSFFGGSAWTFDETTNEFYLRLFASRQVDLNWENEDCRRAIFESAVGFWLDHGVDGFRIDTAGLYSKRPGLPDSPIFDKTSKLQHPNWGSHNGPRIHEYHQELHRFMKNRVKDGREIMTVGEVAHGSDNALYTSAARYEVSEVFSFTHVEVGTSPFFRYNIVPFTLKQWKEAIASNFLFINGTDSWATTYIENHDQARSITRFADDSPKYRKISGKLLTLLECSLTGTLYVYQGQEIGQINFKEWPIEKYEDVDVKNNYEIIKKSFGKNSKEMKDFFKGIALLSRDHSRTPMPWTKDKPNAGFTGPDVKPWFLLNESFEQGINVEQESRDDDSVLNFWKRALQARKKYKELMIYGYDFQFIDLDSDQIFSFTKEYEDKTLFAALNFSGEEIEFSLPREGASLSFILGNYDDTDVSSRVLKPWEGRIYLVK
SMILES,"Ki [1, 6] [µM]",GI50 (concentration to achieve 50% growth inhibition) [2],GI50 [2] [µM],EC50 [3] [µM],EC50 [4] [µM],EC50 [5] [µM],SI (EC50 MRC-5/EC50 parasite) [5],SI (EC50 THP-1/EC50 parasite) [4],"Ki, α-Glcase (Yeast Maltase) [1, 7]",Ki [1] [µM]
"CC(C)(C)OC(=O)NCCS(=O)(=O)CCC[C@@H]1[C@H](O)[C@@H](O)[C@H](O)[C@H]2COC(=O)N12 [Compound 6, (1R)-1-[3-(N-tert-Butoxycarbonylaminoethylsulfonyl)propyl]-5N,6O-oxomethylidene-1-deoxynojirimycin]",0.75 ± 0.02,did not show any significant antiproliferative activity,> 100,> 20,> 200,155 ± 3.1,< 7.76,,,
"CCCCCCCCCCCCS(=O)(=O)CCC[C@@H]1[C@H](O)[C@@H](O)[C@H](O)[C@H]2COC(=O)N12 [Compound 5, (1R)-1-[3-(Dodecylsulfonyl)propyl]-5N,6O-oxomethylidene-1-deoxynojirimycin]",2.5 ± 0.2,,26 to 82,11.4 ± 5.08,100 ± 10.9,71.5 ± 3.75,6.25,8.78,,
"C[C@@H]1[C@H](O)[C@@H](C)/C=C/C=C/C=C/C=C/C=C/C=C/C=C/[C@H](O[C@@H]2O[C@H](C)[C@@H](O)[C@H](N)[C@@H]2O)C[C@@H]2O[C@](O)(C[C@@H](O)C[C@@H](O)[C@H](O)CC[C@@H](O)C[C@@H](O)CC(=O)O[C@H]1C)C[C@H](O)[C@H]2C(=O)O [AmB, amphotericin B, reference compound]",,,,0.15 ± 0.01,20.1 ± 4.43,16.9 ± 2.44,112.87,133.80,,
"CCCCCCCCCCCCSCCC[C@@H]1[C@H](O)[C@@H](O)[C@H](O)[C@H]2COC(=O)N12 [Compound 2, (1R)-1-[3-(Dodecylthio)propyl]-5N,6O-oxomethylidene-1-deoxynojirimycin]",0.74 ± 0.03,,9.6 to 19,> 20,72.2 ± 4.18,19.9 ± 2.76,< 1,< 3.61,nanomolar competitive inhibitor,
"CC(C)(C)OC(=O)NCCSCCC[C@@H]1[C@H](O)[C@@H](O)[C@H](O)[C@H]2COC(=O)N12 [Compound 3, (1R)-1-[3-(N-tert-Butoxycarbonylaminoethylthio)propyl]-5N,6O-oxomethylidene-1-deoxynojirimycin]",,did not show any significant antiproliferative activity; also recorded: out of range; also recorded: did not display significant antiproliferative activity,> 100,15 ± 1.28,> 200,134 ± 6.02,8.95,,,0.28 ± 0.02
"CCCCCCCCCCCCSCCC[C@@H]1[C@H](O)[C@@H](O)[C@@H](O)[C@H]2COC(=O)N12 [Compound 8, (1R)-1-[3-(Dodecylthio)propyl]-5N,6O-oxomethylidene-1-deoxygalactonojirimycin]",,,9.6 to 19,> 20,68.3 ± 3.04,32.1 ± 1.94,< 1.60,< 3.42,did not inhibit and n.i.,
"CCCCCCCCCCCCS(=O)(=O)CCC[C@@H]1[C@H](O)[C@@H](O)[C@@H](O)[C@H]2COC(=O)N12 [Compound 11, (1R)-1-[3-(Dodecylsulfonyl)propyl]-5N,6O-oxomethylidene-1-deoxygalactonojirimycin]",,,26 to 82,> 20,> 200,162 ± 20.2,< 8.10,,n.i.,
"CCCCCCCCSCCC[C@@H]1[C@H](O)[C@@H](O)[C@H](O)[C@H]2COC(=O)N12 [Compound 1, (1R)-1-[3-(Octylthio)propyl)-5N,6O-oxomethylidene-1-deoxynojirimycin]",0.34 ± 0.02,,14 to 54,7.68 ± 0.29,131 ± 4.29,32.2 ± 1.03,4.19,17.06,,
"CCCCCCCCS(=O)(=O)CCC[C@@H]1[C@H](O)[C@@H](O)[C@H](O)[C@H]2COC(=O)N12 [Compound 4, (1R)-1-[3-(Octylsulfonyl)propyl]-5N,6O-oxomethylidene-1-deoxynojirimycin]",2.6 ± 0.3,,> 100,> 20,> 200,189 ± 15.6,< 9.45,,,
"CCCCCCCCS(=O)(=O)CCC[C@@H]1[C@H](O)[C@@H](O)[C@@H](O)[C@H]2COC(=O)N12 [Compound 10, (1R)-1-[3-(Octylsulfonyl)propyl]-5N,6O-oxomethylidene-1-deoxygalactonojirimycin]",,,> 100,13.8 ± 1.72,> 200,185 ± 21.2,13.40,,n.i.,
"CC(C)(C)OC(=O)NCCS(=O)(=O)CCC[C@@H]1[C@H](O)[C@@H](O)[C@@H](O)[C@H]2COC(=O)N12 [Compound 12, (1R)-1-[3-(N-tert-Butoxycarbonylaminoethylsulfonyl)propyl]-5N,6O-oxomethylidene-1-deoxygalactonojirimycin]",,did not show any significant antiproliferative activity,> 100,> 20,> 200,182 ± 14.9,< 9.08,,n.i.,
